In data set [1] the test system is human α3β4, α4β2, α3β2 and α7 receptors. Particulars: cited from earlier work; for mode of inhibition: neuronal nAChRs; for selectivity between nAChR types: neuronal vs muscle-type nAChRs.
For data set [2] the following is noted: higher doses (30-90 mg/day); cited from earlier work.
Data set [3] has as its system inflammatory cytokines IL-6, IL-1β, and TNFα. The data set is described as follows: SARS-CoV-2 induced cytokine gene expression in Calu3 cells. It is filed as cell-based. The conditions noted are these: 0.1 MOI SARS CoV2, single agent: PG 20 μM, Mec 5 μM or Mec iso 5 μM, 48 hrs.
Data set [4] relates to inflammatory cytokine gene expression (IL1-β, IL-6, TNF-α). Description: Inflammatory cytokine gene expression in MHV4 infected IMG cells. The data set is classed as cell-based. Particulars: 2 MOI MHV4, mecamylamine 1, 10 or 40 μM, 48 hours.
Data set [5] relates to mouse hepatitis virus strain 4 (MHV4). The data set is described as follows: MHV4 replication in infected IMG cells (GFP expression, N gene qPCR). It is filed as cell-based. Particulars: 2 MOI MHV4, mecamylamine 1, 10 or 40 μM, 48 hours. On the technique in general: In qPCR the cycle at which signal appears reflects the starting amount.
The conditions of data set [6]: in vivo; cited from earlier work.

With `CN[C@@]1(C)[C@@H]2CC[C@@H](C2)C1(C)C` [S-(+)-mecamylamine], in data set [1], the mode of inhibition entry is reported as “noncompetitive inhibitors” and the “selectivity between nAChR types” value is given as “selective for neuronal nAChRs over muscle-type nAChRs”.
Consider `CNC1(C)C2CCC(C2)C1(C)C` (stereo not drawn) [R-(−)-mecamylamine], for which, in data set [1], the mode of inhibition result was “noncompetitive inhibitors” and the “selectivity between nAChR types” value is listed as “selective for neuronal nAChRs over muscle-type nAChRs”.
On to `CNC1(C)C2CCC(C2)C1(C)C` (racemic) [mecamylamine], for which, in data set [2], the side effects result is “causes unfavorable side effects”. Besides, the “selectivity between nAChR types” value in data set [1] is given as “selective for neuronal nAChRs over muscle-type nAChRs”. In addition, in data set [3], the “inflammatory cytokines IL-6, IL-1β, and TNFα” value is given as “significant decrease”. Further, in data set [4], the “cytokine gene transcription (qPCR)” value is reported as “dose-dependent decrease”. Also, in data set [5], the GFP expressing cells entry is recorded as “dose-dependent decrease” and the “MHV-4 N-gene expression” value is listed as “dose-dependent decrease”. Besides, the “blood brain barrier penetration” value in data set [6] is recorded as “ability to cross the blood brain barrier”.

(Values after patent publication US11766429B1, “Nicotinic receptor antagonists and pioglitazone as therapeutic agents for Covid-19” (priority 2020, dated 2023).)
